# Source: PMC4841536, “Characterization of the Anti-HCV Activities of the New Cyclophilin Inhibitor STG-175” (PLoS ONE, 2016)
# Tests used:
# [1] = test system: HIV-1 in mixed PBMCs, NTCP-Huh7 and Huh7.5.1 cells; assay: Dual/triple co-infection in cell co-cultures, HIV-1 readout; assay type: cell-based
# [2] = test system: HBV AD38 in NTCP-Huh7 cells; assay: Mono-infection, HBV HBeAg ELISA; assay type: cell-based, hepatitis B virus; settings: 0.5 and 5 μM, added together with virus, 12 days
# Excerpt: For mono-infections: a) human hepatoma Huh7.5.1 cells were infected with HCV (JFH-1) and viral replication was quantified by HCV core ELISA (Ortho HCV antigen ELISA kit; Ortho Clinical Diagnostics, Waco Chemicals, Inc. or HCV Core ELISA, XpressBio); b) sodium-taurocholate co-transporting polypeptide (NTCP)-positive Huh7 cells were infected with hepatitis B virus (HBV) AD38 (produced from HepAD38 cells) and viral replication was quantified by HBV HBeAg ELISA; and c) human (peripheral blood monocytic cells (PBMCs) were infected with HIV-1 (JR-CSF) and viral replication was quantified by HIV-1 capsid/p24 ELISA. PBMCs were isolated as described previously. The Scripps Research Institute Normal Blood Donor Service (TSRI NBDS) provides TSRI investigators who have Human Subjects Committee-approved protocols with a source of normal blood for their research. Donors are assured of a controlled clinical setting for their blood to be drawn by licensed phlebotomists, and investigators are assured that the donors whose specimens they obtain through the service have been screened upon entry into the program and annually thereafter for a CBC, Hepatitis B and C and HIV-1. Hemoglobin determinations at every donation protect the donor from phlebotomy-induced anemia. […]
# [3] = test system: NS5Bi-resistant S282T NS5B Con1 GT1b replicon; assay: Electroporated Con1 RNA replication in Huh7.5.1 cells (RT-qPCR), S282T NS5B; assay type: cell-based; settings: Hepatitis C virus, Huh-7.5.1, 192 h, read-out: EC50 S282T NS5B
# Excerpt: The GT1b subgenomic firefly luciferase reporter replicon pFK-I389/NS3–3 was provided by R. Bartenschlager. The GT1B subgenomic NS3, NS5A and NS5B mutants were created via homologous recombination using the In-Fusion HD Cloning kit (Clontech) as we described previously. […] The in vitro transcription of wild-type and mutant Con1 RNA was accomplished using the T7 MEGAscript kit (Ambion) by following the manufacturer’s instructions. In vitro-transcribed RNAs were introduced into Huh7.5.1 cells by electroporation. Trypsinized cells were washed twice and resuspended in phosphate-buffered saline (PBS) (calcium-free and magnesium-free) at 1x 10^7 cells per ml. Ten micrograms of RNA for each mutant was mixed with 0.4 mL of cells in a 4-mm cuvette, and a Bio-Rad Gene Pulser system was used to deliver a single pulse at 0.27 kV, 100 ohms, and 960 μF. […] RNA transfection efficiency and HCV subgenomic replication were assessed by reverse transcription-quantitative PCR (RT-qPCR) and presented as genome equivalents (GE) per microgram of total RNA as described previously. We measured by RT-qPCR the replication of wild-type, STG-175-, NS5Ai-, NS3i- and NS5Bi-resistant mutants in the presence of increasing concentrations of SGT-175, daclatasvir, telaprevir, boceprevir and sofosbuvir over a period of 8 days.
# Fig 5 Cross-resistance analyses. […] Data are expressed as log of GE/μg of total RNA. […]
smiles,measurement,setting,value
CC=CCC(C)C(O)C1C(=O)NC(CC)C(=O)N(C)C(CSCCCCO)C(=O)N(C)C(CC(C)(C)O)C(=O)NC(C(C)C)C(=O)N(C)C(CC(C)C)C(=O)NC(C)C(=O)NC(C)C(=O)N(C)C(CC(C)C)C(=O)N(C)C(CC(C)C)C(=O)N(C)C(C(C)C)C(=O)N1C (stereo not shown) [STG-175],HIV-1 infection in co-infection,[1]; STG-175 added together with virus,totally blocked
same,established HIV-1 infection in co-infection,[1]; added 3 days post-infection and then every 3 days,almost totally aborted
same,HBV infection (HBeAg ELISA),[2],significantly reduced
same,EC50,[3],5.41 nM
